Entries after “also recorded” stand apart in the source; their conditions may differ.
How the values were obtained:
BvADHα = experiment: Tyr/effector sensitivity of ADH activity of purified recombinant enzyme; assay type: biochemical, Beta vulgaris; conditions: for effect of effector on ADH activity: effector at 1 mM
Protocol: (§1) […]. The production of reduced cofactor (NADPH) was monitored at 340 nm using a spectrophotometer every two minutes for 10 min. In addition, other effectors (L-Phe, L-Trp, and betanin) were used to test possible inhibition of the enzyme ADH activity at a final concentration of 1 mM. All of the reactions were performed under non-saturated condition, where activity increased linearly depending on reaction times and enzyme concentrations.

BvADHβ = experiment: as above; assay type: biochemical, Beta vulgaris; conditions: for effect of effector on ADH activity: effector at 1 mM; for inhibition of ADH activity: GST-tagged BvADHβ
Protocol: as §1

AtADH2 = target: T1, AtADH2 (Arabidopsis thaliana, UniProt Q9LMR3); experiment: Effector sensitivity of ADH activity of purified recombinant enzyme; assay type: biochemical; conditions: effector at 1 mM
T1 construct: made in house; host or cells: E. coli Rosetta-2 (pGEX-2T)
T1 sequence (Q9LMR3 37-358): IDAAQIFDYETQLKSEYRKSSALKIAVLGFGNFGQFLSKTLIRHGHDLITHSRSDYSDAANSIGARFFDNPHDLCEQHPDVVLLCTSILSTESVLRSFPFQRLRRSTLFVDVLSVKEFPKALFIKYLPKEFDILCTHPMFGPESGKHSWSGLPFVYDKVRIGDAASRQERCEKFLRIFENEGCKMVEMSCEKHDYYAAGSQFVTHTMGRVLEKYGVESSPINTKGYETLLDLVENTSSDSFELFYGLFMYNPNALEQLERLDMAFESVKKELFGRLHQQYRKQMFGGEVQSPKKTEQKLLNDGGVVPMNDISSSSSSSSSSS
Protocol: as §1

SoADHα = experiment: Tyr sensitivity of ADH activity of purified recombinant enzyme; assay type: biochemical, Spinacia oleracea
Protocol: as §1

NaADHβ = experiment: as above; assay type: biochemical, Nepenthes ventricosa x alata
Protocol: as §1

[1] = tested on: ADH activity of spinach leaf plastid extract; experiment: Tyr sensitivity of ADH activity from plant tissue extracts; assay type: biochemical, Spinach oleracea; conditions: 1 mM arogenate, 1 mM NADP+; for inhibition (%): 0.5 mM effector vs 0 mM, 2 hr
Protocol: (§2) Spinach oleracea seeds (HighMowing, Wolcott, VT) and pink Dianthus barbatus (BloomIQ, Lansing, MI) seedlings were purchased from a nursery and were grown together with Arabidopsis thaliana (ecotype Columbia) in 22° C., 60% humidity, and 12/12 h light cycle growth chamber. Leaves of spinach and Arabidopsis seedlings were harvested at 3-week-old, and Dianthus barbatus leaves were harvested at 6-week-old. The crude extracts of Arabidopsis or Dianthus barbatus were prepared from ˜1 g leaf tissues according to Aryal et al. (2014). For spinach, ˜10 g leaf tissues were used to isolate the plastids according to Aryal et al. (2014) in order to avoid the undesired cytosolic polyphenol oxidase activity. Crude or plastid fractions were desalted by Sephadex G50 column to obtain protein extracts, and protein concentration of all biological replicates were adjusted to 0.06, 0.85, and 0.6 mg/mL for spinach, Dianthus barbatus, and Arabidopsis extracts, respectively. […] The reaction was stopped by adding 20 μL methanol containing 10 μM norvaline as an internal standard. Respective boiled protein extracts were used as negative controls. […]

[2] = tested on: ADH activity of Dianthus barbatus leaf crude extract; experiment: as above; assay type: biochemical; conditions: 1 mM arogenate, 1 mM NADP+; for inhibition (%): 0.5 mM effector vs 0 mM, 2 hr
Protocol: as §2

[3] = tested on: ADH activity of Arabidopsis leaf crude extract; experiment: as above; assay type: biochemical, Arabidopsis thaliana; conditions: 1 mM arogenate, 1 mM NADP+; for inhibition (%): 0.5 mM effector vs 0 mM, 2 hr
Protocol: as §2

[4] = 0.5 mM 3-fluoro-Tyr, 2 hr incubation

Row | Structure (SMILES) | effect of effector on ADH activity (BvADHα) | effect of effector on ADH activity (BvADHβ) | effect of effector on ADH activity (AtADH2) | inhibition (%) [1] [%] | inhibition (%) [2] | inhibition (%) [3] | other results
1 | N[C@@H](Cc1ccccc1)C(=O)O [Phe, L-phenylalanine] | did not significantly reduce | did not significantly reduce | did not significantly reduce | – | – | – | effect of effector on ADH activity (BvADHα; listed as phenylalanine): not inhibited; effect of effector on ADH activity (BvADHβ; listed as phenylalanine): not inhibited
2 | N[C@@H](Cc1c[nH]c2ccccc12)C(=O)O [tryptophan, L-tryptophan] | did not significantly reduce; also recorded: not inhibited | did not significantly reduce; also recorded: not inhibited | did not significantly reduce | – | – | – | –
3 | N[C@@H](Cc1ccc(O)cc1)C(=O)O [Tyr, L-Tyrosine] | – | – | – | ~21 | 92-95% | 92-95% | reduction of ADH activity (BvADHα; 1 mM Tyr, GST-tagged BvADHα): half; sensitivity to Tyr (BvADHα; His-tagged BvADHα, compared with AtADH2): much less sensitivity to Tyr than AtADH2; inhibition of ADH activity (BvADHβ; 100 μM Tyr): 80%; inhibition of ADH activity (BvADHβ; 1 mM Tyr): 100%; Tyr sensitivity of ADH activity (SoADHα): reduced Tyr sensitivity; inhibition of ADH activity by Tyr (NaADHβ): strongly inhibited
4 | O=C(O)C1=C/C(=C/C=[N+]2/c3cc(O)c(OC4OC(CO)[C@@H](O)C(O)C4O)cc3CC2C(=O)[O-])CC(C(=O)O)N1 (stereo in doubt) [betanin] | did not significantly reduce; also recorded: not inhibited | did not significantly reduce; also recorded: not inhibited | did not significantly reduce | – | – | – | –
5 | NC(Cc1ccc(O)c(F)c1)C(=O)O (centres unmarked) [3-fluoro-Tyr] | – | – | – | 20.7 | 95.0% | 91.6% | ADH activity [1, 4]: 52.7 ± 1.9 nmol/mg protein; ADH activity [2, 4]: 0.9 ± 0.2 nmol/mg protein; ADH activity [3, 4]: 7.8 ± 0.5 nmol/mg protein

Reference: patent US20260132413A1, “AROGENATE DEHYDROGENASE POLYNUCLEOTIDES, POLYPEPTIDES AND METHODS OF USING THE SAME” (Wisconsin Alumni Research Foundation, priority 2017, published 2026)
